Results published in PubChem BioAssay (NCI).
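Where inhibition never reached the appropriate level, the endpoint shown equals the highest concentration tested. Otherwise, values were interpolated linearly from a five-concentration, 48-hour dose response in 96-well plates. GI50 = concentration required for 50% inhibition of growth. TGI is the concentration that stops growth completely.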 Where a SMILES comes first, the peptide text is derived from it. The star is where a group is joined. Boc = CC(C)(C)OC(=O)*; OBn = c1ccc(CO*)cc1; Bn = c1ccc(C*)cc1

Legend:
Assay in all cases: growth of human tumour cells (NCI), 48 h
HCT-116 colon = system: HCT-116 colon
HT29 colon = system: HT29 colon
IGROV1 ovarian = system: IGROV1 ovarian
NCI-H23 lung = system: NCI-H23 lung
OVCAR-8 ovarian = system: OVCAR-8 ovarian
SN12C renal = system: SN12C renal
SNB-75 CNS = system: SNB-75 CNS
TK-10 renal = system: TK-10 renal
DU-145 prostate = system: DU-145 prostate
HOP-92 NSCLC = system: HOP-92 NSCLC

| Structure (SMILES) | TGI (HCT-116 colon) | TGI (HT29 colon) | TGI (IGROV1 ovarian) | TGI (NCI-H23 lung) | TGI (OVCAR-8 ovarian) | TGI (SN12C renal) | TGI (SNB-75 CNS) | TGI (TK-10 renal) | TGI (DU-145 prostate) | TGI (HOP-92 NSCLC) | GI50 (DU-145 prostate) | GI50 (HOP-92 NSCLC) | GI50 (HT29 colon) | GI50 (IGROV1 ovarian) | GI50 (NCI-H23 lung) | GI50 (OVCAR-8 ovarian) | GI50 (SN12C renal) | GI50 (SNB-75 CNS) | GI50 (TK-10 renal) |
| --- | --- | --- | --- | --- | --- | --- | --- | --- | --- | --- | --- | --- | --- | --- | --- | --- | --- | --- | --- |
| c1ccc(C[P+]2(c3ccccc3)CCCCC2)cc1 | > 100 µM | > 100 µM | > 100 µM | > 100 µM | > 100 µM | > 100 µM | > 100 µM | > 100 µM | – | – | – | – | – | – | – | – | – | – | – |
| O=C1OS2(OC(=O)c3cccc4cccc2c34)c2ccccc21 (configuration not stated) | > 100 µM | > 100 µM | > 100 µM | > 100 µM | > 100 µM | > 100 µM | – | > 100 µM | > 100 µM | > 100 µM | – | – | – | – | – | – | – | – | – |
| C=CCn1c(-c2ccc(N=NNc3ccc(-c4n[nH]c(=S)n4CC=C)cc3)cc2)n[nH]c1=S | – | – | 15.1 µM | > 100 µM | 8.84 µM | > 100 µM | 10.8 µM | > 100 µM | 16 µM | 39.1 µM | – | – | – | – | – | – | – | – | – |
| O=c1[nH]c(=O)n(COCCO)cc1-c1ccccc1 | > 100 µM | > 100 µM | > 100 µM | > 100 µM | > 100 µM | > 100 µM | – | > 100 µM | > 100 µM | > 100 µM | – | – | – | – | – | – | – | – | – |
| Cc1cc(S(=O)(=O)Nc2nc(N)n(-c3ccccc3)n2)c(S)cc1Cl | > 100 µM | > 100 µM | > 100 µM | – | > 100 µM | > 100 µM | > 100 µM | > 100 µM | > 100 µM | – | – | – | – | – | – | – | – | – | – |
| O=C1CCCn2c3ccccc3c3ccnc1c32 | > 100 µM | > 56.1 µM | > 100 µM | > 100 µM | > 100 µM | > 100 µM | > 100 µM | – | – | > 100 µM | – | – | – | – | – | – | – | – | – |
| C=CCCCN1C(=O)C2C3c4ccccc4C(C=O)(c4ccccc43)C2C1=O (configuration not stated) | 14.9 µM | 27.5 µM | 65.1 µM | 33 µM | 26.5 µM | 22.2 µM | – | 30.2 µM | 26.1 µM | 28.2 µM | – | – | – | – | – | – | – | – | – |
| CS(=O)(=O)c1nc(-c2cc3c(c(S(C)(=O)=O)n2)CCC3)cc2c1CCC2 | > 100 µM | > 100 µM | 85.1 µM | > 100 µM | > 100 µM | > 100 µM | 53.4 µM | > 100 µM | > 100 µM | – | – | – | – | – | – | – | – | – | – |
| CSCC[C@@H](NC(=O)[C@H](CC(C)C)NC(=O)C(Cc1cnc[nH]1)NC(=O)CNC(=O)[C@@H](NC(=O)[C@H](C)NC(=O)[C@H](Cc1cn(C=O)c2ccccc12)NC(=O)[C@H](CCC(N)=O)NC(=O)[C@@H](N)CC(N)=O)C(C)C)C(N)=O (some centres not stated) | > 100 µM | > 100 µM | > 100 µM | > 100 µM | > 100 µM | > 100 µM | > 100 µM | – | – | – | – | – | – | – | – | – | – | – | – |
| Nc1nc(-c2ccccc2)cc(-c2ccc(F)cc2)c1-c1ccc(Cl)cc1 | > 100 µM | > 100 µM | > 100 µM | > 100 µM | > 100 µM | > 100 µM | > 100 µM | > 100 µM | > 100 µM | – | – | – | – | – | – | – | – | – | – |
| N#CCCN(CCN(CCN(C(=O)Nc1ccccc1)c1ccccc1)C(=O)Nc1ccccc1)C(=O)Nc1ccccc1 | > 100 µM | – | > 100 µM | > 100 µM | > 100 µM | > 100 µM | > 100 µM | > 100 µM | > 100 µM | > 100 µM | – | – | – | – | – | – | – | – | – |
| O=C(/C=C/c1ccco1)c1ccc(Nc2ccnc3cc(Cl)ccc23)cc1 | – | > 100 µM | > 100 µM | > 100 µM | > 100 µM | > 100 µM | > 100 µM | > 100 µM | > 100 µM | 62 µM | 9.33 µM | 15 µM | 3.09 µM | 15.2 µM | > 100 µM | > 100 µM | > 100 µM | > 100 µM | > 100 µM |
| CCCCc1ccc(Nc2nc(N)c3[nH]cnc3n2)cc1 | 32.3 µM | 28.3 µM | 27.9 µM | 32.8 µM | 31.8 µM | 31.1 µM | – | 43.2 µM | 56.7 µM | 33.3 µM | – | – | – | – | – | – | – | – | – |
| O=C(/C=C/c1ccccc1O)CC(=O)/C=C/c1ccccc1O | 7.42 µM | – | 25.7 µM | 16.9 µM | 23.3 µM | 20.6 µM | > 78.7 µM | > 100 µM | > 31.6 µM | 53.7 µM | – | – | – | – | – | – | – | – | – |
| CC(=O)Nc1ccc(S(=O)(=O)/N=c2/sc(S(N)(=O)=O)nn2C)cc1 | > 100 µM | > 100 µM | – | > 100 µM | > 100 µM | – | > 100 µM | > 100 µM | > 100 µM | > 100 µM | – | – | – | – | – | – | – | – | – |
| CC(C)OCC(O)COc1cc(=O)oc2ccccc12 (configuration not stated) | > 100 µM | > 100 µM | > 100 µM | > 100 µM | > 100 µM | > 100 µM | – | > 100 µM | > 100 µM | > 100 µM | – | – | – | – | – | – | – | – | – |
| CC1(C)OC2C(CO)OC(/N=C(\NC#N)Oc3ccccc3)C2O1 (configuration not stated) | > 100 µM | > 100 µM | > 100 µM | > 100 µM | > 100 µM | > 100 µM | > 100 µM | > 100 µM | – | – | – | – | – | – | – | – | – | – | – |
| O=c1[nH]/c(=C/c2cccs2)c(=O)[nH]/c1=C/c1ccc(OCc2ccccc2)cn1 | > 100 µM | > 100 µM | > 100 µM | 1.7 µM | 65.4 µM | > 100 µM | 2.66 µM | 27.4 µM | 5.04 µM | – | – | – | – | – | – | – | – | – | – |
| CS(=O)(=O)c1ccc(C2=C(c3ccccc3)C(=O)OC2)cc1 | > 100 µM | – | > 100 µM | > 100 µM | > 100 µM | > 100 µM | > 100 µM | > 100 µM | > 100 µM | > 100 µM | – | – | – | – | – | – | – | – | – |
| CSc1nc(NC2CC2)c2c(n1)Sc1nc3ccccc3n1N=C2 | 27.4 µM | > 100 µM | > 100 µM | > 100 µM | 85.3 µM | 33.4 µM | – | 62.4 µM | 46.1 µM | 73.9 µM | – | – | – | – | – | – | – | – | – |
| CC(C)CC(NC(=O)C(CCC(=O)OCc1ccccc1)NC(=O)OC(C)(C)C)C(=O)NC(COCc1ccccc1)C(=O)NC(Cc1ccccc1)C(=O)O (configuration not stated) (Boc-E(OBn)LS(Bn)F-OH; configuration not given here) | > 100 µM | > 100 µM | > 100 µM | > 100 µM | > 100 µM | > 100 µM | > 100 µM | > 100 µM | – | > 100 µM | – | – | – | – | – | – | – | – | – |
| COC12OC3(C4OC41)C(C(=O)O[C@H]3CO[Si](C)(C)C(C)(C)C)C2S(=O)(=O)c1ccccc1 (some centres not stated) | > 7.06 µM | – | – | > 100 µM | > 100 µM | > 9.26 µM | – | > 100 µM | > 6.06 µM | > 100 µM | – | – | – | – | – | – | – | – | – |
